# Measurements: PubChem BioAssay AID256 (DTP/NCI, 2004)
# Values joined by “and” are separate entries in the source; they are usually repeats but may differ in a detail not shown here. Equal values may be shown once. Toxic doses and inconclusive results are not listed.
# Tested on: CD2F1 mice, L1210 leukemia ip, survival T/C
# Assay: NCI In Vivo Anticancer Drug Screen. Data for tumor model L1210 Leukemia (intraperitoneal) in CD2F1 (CDF1) mice
# Details: higher = longer survival
# In short: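 Read-out first: treated-group measurement over vehicle-control measurement, expressed as a ratio. Animals bore a transplanted tumor line and were dosed with compound or vehicle.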
# [1] = endpoint: mean survival time, dose: 100.0 mg/kg/injection, schedule: Q04DX003 (ip), vehicle: saline with Tween-80
# [2] = endpoint: mean survival time, dose: 200.0 mg/kg/injection, schedule: Q04DX003 (ip), vehicle: saline with Tween-80
# [3] = endpoint: mean survival time, dose: 400.0 mg/kg/injection, schedule: Q04DX003 (ip), vehicle: saline with Tween-80
# [4] = endpoint: mean survival time, dose: 100.0 mg/kg/injection, schedule: Q01DX009 (ip), vehicle: saline with Tween-80
# [5] = endpoint: mean survival time, dose: 200.0 mg/kg/injection, schedule: Q01DX009 (ip), vehicle: saline with Tween-80
# [6] = endpoint: mean survival time, dose: 400.0 mg/kg/injection, schedule: Q01DX009 (ip), vehicle: saline with Tween-80
# [7] = endpoint: mean survival time, dose: 25.0 mg/kg/injection, schedule: Q01DX009 (ip), vehicle: saline with Tween-80
smiles,measurement,setting,value
CCCCC/C=C\C/C=C\CCCCCCCC(=O)OCC1CNP(=O)(N(CCCl)CCCl)O1 (stereo not given),T/C,"endpoint: mean survival time, dose: 6.25 mg/kg/injection, schedule: Q01DX009 (ip), vehicle: water",103 % of control
same,T/C,"endpoint: mean survival time, dose: 12.5 mg/kg/injection, schedule: Q01DX009 (ip), vehicle: water",95 % of control
same,T/C,"endpoint: mean survival time, dose: 23.3 mg/kg/injection, schedule: Q01DX001 (ip), vehicle: DMSO",101 % of control
same,T/C,"endpoint: mean survival time, dose: 25.0 mg/kg/injection, schedule: Q01DX009 (ip), vehicle: water",95 % of control
same,T/C,"endpoint: mean survival time, dose: 38.9 mg/kg/injection, schedule: Q01DX001 (ip), vehicle: DMSO",98 % of control
same,T/C,"endpoint: mean survival time, dose: 50.0 mg/kg/injection, schedule: Q01DX009 (ip), vehicle: water",97 % of control
same,T/C,"endpoint: mean survival time, dose: 64.8 mg/kg/injection, schedule: Q01DX001 (ip), vehicle: DMSO",98 % of control
same,T/C,"endpoint: mean survival time, dose: 100.0 mg/kg/injection, schedule: Q01DX009 (ip), vehicle: water",103 % of control
same,T/C,"endpoint: mean survival time, dose: 108.0 mg/kg/injection, schedule: Q01DX001 (ip), vehicle: DMSO",97 % of control
same,T/C,"endpoint: mean survival time, dose: 180.0 mg/kg/injection, schedule: Q01DX001 (ip), vehicle: DMSO",98 % of control
same,T/C,"endpoint: mean survival time, dose: 200.0 mg/kg/injection, schedule: Q01DX009 (ip), vehicle: water",103 % of control
same,T/C,"endpoint: mean survival time, dose: 300.0 mg/kg/injection, schedule: Q01DX001 (ip), vehicle: DMSO",97 % of control
CCN(CC)CCCC(C)Nc1cc(C)nc(Nc2nc3cc(Cl)c(Cl)cc3[nH]2)n1 (stereo not given),T/C,"endpoint: mean survival time, dose: 5.0 mg/kg/injection, schedule: Q04DX003 (ip), vehicle: saline with Tween-80",101 % of control
same,T/C,"endpoint: mean survival time, dose: 10.0 mg/kg/injection, schedule: Q04DX003 (ip), vehicle: saline with Tween-80",94 % of control
same,T/C,"endpoint: mean survival time, dose: 20.0 mg/kg/injection, schedule: Q04DX003 (ip), vehicle: saline with Tween-80",91 % of control
O=C1C=C(N2CCCC2)c2ccccc21,T/C,"endpoint: mean survival time, dose: 100.0 mg/kg/injection, schedule: Q04DX003 (ip), vehicle: Klucel (hydroxypropylcellulose) (HPC)",106 % of control
same,T/C,"endpoint: mean survival time, dose: 200.0 mg/kg/injection, schedule: Q04DX003 (ip), vehicle: Klucel (hydroxypropylcellulose) (HPC)",97 % of control
same,T/C,"endpoint: mean survival time, dose: 400.0 mg/kg/injection, schedule: Q04DX003 (ip), vehicle: Klucel (hydroxypropylcellulose) (HPC)",95 % of control
N#CCc1c(Cl)c(Cl)c(Cl)c(Cl)c1Cl,T/C,[1],103 % of control
same,T/C,[2],103 % of control
same,T/C,[3],102 % of control
O=C1N(C2CCCCC2)CC2C(c3ccccc3)NNC12O (stereo not given),T/C,[4],103 % of control
same,T/C,[1],97 % of control
same,T/C,[5],90 % of control
same,T/C,[2],97 % of control
same,T/C,[6],100 % of control
same,T/C,[3],98 % of control
Cc1cc(N(CCCOS(C)(=O)=O)CCCOS(C)(=O)=O)ccc1C=Nc1ccc(-c2csc(COc3ccccc3)n2)cc1,T/C,"endpoint: mean survival time, dose: 100.0 mg/kg/injection, schedule: Q01DX001 (ip), vehicle: saline with Tween-80",89 % of control
same,T/C,[4],90 % of control
same,T/C,"endpoint: mean survival time, dose: 200.0 mg/kg/injection, schedule: Q01DX001 (ip), vehicle: saline with Tween-80",91 % of control
same,T/C,[5],86 % of control
same,T/C,"endpoint: mean survival time, dose: 400.0 mg/kg/injection, schedule: Q01DX001 (ip), vehicle: saline with Tween-80",88 % of control
O=C1CCc2cccc(O)c21,T/C,[4],98 % of control
same,T/C,[1],101 % of control
same,T/C,[5],93 % of control
same,T/C,[2],97 % of control
same,T/C,[6],95 % of control
same,T/C,[3],108 % of control
N#Cc1cccc(/C=C/c2ccc(S(=O)(=O)F)cc2)c1,T/C,"endpoint: mean survival time, dose: 100.0 mg/kg/injection, schedule: Q01DX001 (ip), vehicle: other",95 % of control and 102 % of control
same,T/C,"endpoint: mean survival time, dose: 100.0 mg/kg/injection, schedule: Q04DX002 (ip), vehicle: other",92 % of control and 98 % of control
same,T/C,"endpoint: mean survival time, dose: 100.0 mg/kg/injection, schedule: Q04DX003 (ip), vehicle: other",100 % of control and 111 % of control
same,T/C,"endpoint: mean survival time, dose: 200.0 mg/kg/injection, schedule: Q01DX001 (ip), vehicle: other",88 % of control and 102 % of control
same,T/C,"endpoint: mean survival time, dose: 200.0 mg/kg/injection, schedule: Q04DX002 (ip), vehicle: other",101 % of control and 107 % of control
same,T/C,"endpoint: mean survival time, dose: 200.0 mg/kg/injection, schedule: Q04DX003 (ip), vehicle: other",99 % of control and 105 % of control
same,T/C,"endpoint: mean survival time, dose: 400.0 mg/kg/injection, schedule: Q01DX001 (ip), vehicle: other",92 % of control and 103 % of control
same,T/C,"endpoint: mean survival time, dose: 400.0 mg/kg/injection, schedule: Q04DX002 (ip), vehicle: other",93 % of control and 107 % of control
CC(C)(C)OC(=O)NC(CCC(=O)OCc1ccccc1)C(=O)O (stereo not given) (tested in a mixture with another compound),T/C,[7],91 % of control
same,T/C,[4],96 % of control and 98 % of control
O=C(c1ccccc1)c1cc2ccccc2o1,T/C,"endpoint: mean survival time, dose: 50.0 mg/kg/injection, schedule: Q01DX009 (ip), vehicle: saline + alcohol",102 % of control
same,T/C,"endpoint: mean survival time, dose: 100.0 mg/kg/injection, schedule: Q01DX009 (ip), vehicle: saline + alcohol",105 % of control
same,T/C,"endpoint: mean survival time, dose: 200.0 mg/kg/injection, schedule: Q01DX009 (ip), vehicle: saline + alcohol",93 % of control
Cc1ccc2[nH]c3c(c2c1)CSCC3,T/C,[4],104 % of control
same,T/C,[5],102 % of control
same,T/C,[6],102 % of control
CS(=O)(=O)[O-].CS(=O)(=O)[O-].NC1CCCCC1N.[Pt+4] (stereo not given),T/C,"endpoint: mean survival time, dose: 0.16 mg/kg/injection, schedule: Q04DX003 (ip), vehicle: other",124 % of control
same,T/C,"endpoint: mean survival time, dose: 0.62 mg/kg/injection, schedule: Q01DX009 (ip), vehicle: dextrose",119 % of control
same,T/C,"endpoint: mean survival time, dose: 5.0 mg/kg/injection, schedule: Q01DX009 (ip), vehicle: dextrose",93 % of control
O=C1C(Br)=C(Br)C(=O)C1(Br)Br,T/C,"endpoint: mean survival time, dose: 6.25 mg/kg/injection, schedule: Q01DX009 (ip), vehicle: saline with Tween-80",97 % of control
same,T/C,"endpoint: mean survival time, dose: 12.5 mg/kg/injection, schedule: Q01DX009 (ip), vehicle: saline with Tween-80",103 % of control
same,T/C,[7],92 % of control
CC(C)N(C(=S)S)C(C)C,T/C,[1],101 % of control
same,T/C,[2],100 % of control
same,T/C,[3],92 % of control
Nc1n[nH]c2cc(=O)[nH]c(O)c12,T/C,"endpoint: mean survival time, dose: 75.0 mg/kg/injection, schedule: Q01DX009 (ip), vehicle: saline",97 % of control
same,T/C,"endpoint: mean survival time, dose: 75.0 mg/kg/injection, schedule: Q04DX003 (ip), vehicle: saline",106 % of control
same,T/C,"endpoint: mean survival time, dose: 150.0 mg/kg/injection, schedule: Q01DX009 (ip), vehicle: saline",103 % of control
same,T/C,"endpoint: mean survival time, dose: 150.0 mg/kg/injection, schedule: Q04DX003 (ip), vehicle: saline",102 % of control
same,T/C,"endpoint: mean survival time, dose: 300.0 mg/kg/injection, schedule: Q01DX009 (ip), vehicle: saline",111 % of control
same,T/C,"endpoint: mean survival time, dose: 300.0 mg/kg/injection, schedule: Q04DX003 (ip), vehicle: saline",106 % of control
COC(=O)Nc1cccc(OC(=O)N(C(C)C)C(C)C)c1,T/C,[1],94 % of control
same,T/C,[2],97 % of control
same,T/C,[3],96 % of control
CNC(C)c1ccc(C)cc1 (stereo not given),T/C,"endpoint: mean survival time, dose: 6.25 mg/kg/injection, schedule: Q04DX003 (ip), vehicle: saline with Tween-80",98 % of control
same,T/C,"endpoint: mean survival time, dose: 12.5 mg/kg/injection, schedule: Q04DX003 (ip), vehicle: saline with Tween-80",108 % of control
same,T/C,"endpoint: mean survival time, dose: 25.0 mg/kg/injection, schedule: Q04DX003 (ip), vehicle: saline with Tween-80",101 % of control
O=C1NC(=O)c2cccc3cccc1c23,T/C,[4],100 % of control
same,T/C,[1],98 % of control
same,T/C,[5],96 % of control
same,T/C,[2],102 % of control
same,T/C,[6],94 % of control
same,T/C,[3],100 % of control
Cc1ccc(Nc2n[nH]c(=S)s2)cc1C,T/C,[1],93 % of control
same,T/C,[2],94 % of control
same,T/C,[3],109 % of control
CCOC(=O)N1C(C(=O)c2ccc(C)cc2)N(C2CCCCC2)C(c2ccccc2)N1C(=O)OCC (stereo not given),T/C,[4],90 % of control
same,T/C,[1],97 % of control
same,T/C,[5],93 % of control
same,T/C,[2],92 % of control
same,T/C,[6],90 % of control
same,T/C,[3],93 % of control
CC(=O)CSc1ncnc2nc[nH]c12,T/C,"endpoint: mean survival time, dose: 62.5 mg/kg/injection, schedule: Q01DX015 (ip), vehicle: saline",118 % of control
same,T/C,"endpoint: mean survival time, dose: 250.0 mg/kg/injection, schedule: Q01DX015 (ip), vehicle: saline",122 % of control
same,T/C,"endpoint: mean survival time, dose: 1000.0 mg/kg/injection, schedule: Q01DX015 (ip), vehicle: saline",150 % of control
O=C(CNC(=O)Nc1ccc(F)cc1)N/N=C/c1ccc(Cl)c(Cl)c1,T/C,"endpoint: mean survival time, dose: 50.0 mg/kg/injection, schedule: Q01DX009 (ip), vehicle: saline with Tween-80",96 % of control
same,T/C,[4],96 % of control
same,T/C,[5],100 % of control
COc1cccc2c1C(=O)c1c(O)c3c(c(O)c1C2=O)C[C@@](O)(C(O)CO)C[C@@H]3OC1CC(N(Cc2ccccc2)Cc2ccccc2)C(O)C(C)O1 (stereo not given in full),T/C,"endpoint: median survival time, dose: 6.25 mg/kg/injection, schedule: Q01DX009 (ip), vehicle: water",122 % of control
C#CCn1c2ccccc2c2ccccc21,T/C,"endpoint: mean survival time, dose: 100.0 mg/kg/injection, schedule: Q04DX003 (ip), vehicle: saline",106 % of control
same,T/C,"endpoint: mean survival time, dose: 200.0 mg/kg/injection, schedule: Q04DX003 (ip), vehicle: saline",98 % of control
same,T/C,"endpoint: mean survival time, dose: 400.0 mg/kg/injection, schedule: Q04DX003 (ip), vehicle: saline",104 % of control
